The nature of test [1]: Bodyweight change and food intake of db/db mice over the 28 day study (Example 1). It counts as in vivo. Particulars: male db/db mice, 10 mg/kg daily. The protocol:
(§1) The phytocannabinoids CBD (10 mg/kg) and THCV (10 mg/kg) were tested along with AM 251 (10 mg/kg) which was used as a positive control.
(§2) On day 1 dosing commenced for groups A to D as outlined in Table 1.1 above. Animals were dosed daily at 17:00.

For the next test, the system named is pancreatic islet cells. The experiment in a line: Histology/morphology of insulin-stained pancreas in diabetic db/db mice (Example 1). The format is in vivo. Particulars: male db/db mice, 10 mg/kg daily. The protocol:
as §1
At the start of the study the Group E animals were sacrificed and a terminal blood sample was taken. In addition four of the animals pancreases were sampled for determination of β-cell area, islet size and β-cell mass by […].
as §2
At the end of the study the animals were sacrificed and a terminal blood sample was taken. In addition four of the animals pancreases were sampled for determination of islet β-cell area, islet size and islet β-cell mass by […].
The pancreases were stained for insulin and the pancreatic islet cells were examined under a microscope to determine the amount of insulin in the cells.

Test [2] in a line: Blood samples for glucose and insulin in db/db mice (Example 1). It counts as in vivo. The procedure: as §1, §2
A short description of test [3]: Oral glucose tolerance test in subjects with Type 2 diabetes at Visit 5 (Example 3 pilot study). It counts as in vivo, human. Particulars: 5 mg THCV twice daily, Visit 5 (Week 13), compared to placebo. From the text: There were four arms in this study plus a placebo comparator. These were a 1:1 and 20:1 ratio of CBD:THCV, CBD alone and THCV alone. Assessment of the impact of each treatment on different parameters was made. Measurements were taken of high density lipoprotein (HDL) cholesterol, total cholesterol, low density lipoprotein (LDL) cholesterol, HDL/LDL ratio, serum triglycerides, apolipoprotein markers (Apo A & Apo B) and determination of ApoA/Apo B ratio.
(§3) Other measurements including: lipid parameters; glucose control (fasting plasma glucose, glucose tolerance, serum fructosamine, glycosylated haemoglobin A1c (HbA1c) (whole blood)); Insulin sensitivity (insulin resistance); body weight & body mass index (BMI); adipose tissue distribution (total % body fat content, waist circumference, neck circumference, waist-to-hip ratio, visceral adiposity, liver triglyceride content); and appetite 11 point numerical rating scale (0-10 NRS).
(§4) The study took place over 15-19 weeks (1-5 week baseline and 13 week treatment period and 1 week follow-up), and was a multicentre, randomised, double blind, placebo controlled, parallel group pilot study which evaluated the test compounds on lipid parameters in subjects with Type 2 diabetes.
Further study visits took place at the end of Week 4 of treatment (Visit 3, Day 29), and again at the end of treatment at Week 13 (Visit 5, Day 92). […]

Test [4] can be described thus: HOMA2 insulin sensitivity, change from baseline, subjects with Type 2 diabetes (Example 3). The format is in vivo, human. Particulars: 5 mg THCV twice daily, end of study period, FIG. 16.
From the text: as §3, §4
(§5) Further study visits took place at the end of Week 4 of treatment (Visit 3, Day 29), and again at the end of treatment at Week 13 (Visit 5, Day 92). Subjects were asked to fast overnight before Visits 1 (or 1B), 2 and 5 (minimum 8 hours). A telephone assessment was also performed at Day 57 (Visit 4) and at Week 14 (Visit 6, Day 99) for safety follow-up.
(§6) As this was a pilot study, a formal sample size calculation was not required. Each treatment group consisted of 10 subjects. There was five treatment groups 1:1 and 20:1 ratio of CBD:THCV plus CBD alone, THCV alone and placebo. […]

For the next test, the system named is beta cell function. As to the kind of experiment: HOMA2 beta cell function, change from baseline, subjects with Type 2 diabetes (Example 3). Particulars: 5 mg THCV twice daily, end of study period, FIG. 17. The format is in vivo, human.
From the text: as §3, §4, §5, §6

The test system of test [5] is Glucagon-Like Peptide 1 (GLP-1). The experiment in a line: Serum glucagon-like peptide 1 (GLP-1) levels, change from baseline, subjects with Type 2 diabetes (Example 3). Particulars: oral 5 mg THCV twice daily, FIG. 18. It counts as in vivo, human.
From the text: Laboratory assessments included; physical examination; markers of vascular function; markers of adipocyte function including leptin and adiponectin; markers of inflammation including cytokines; retinol binding protein (RBP4) concentration; orexin type A (Orexin A) concentration; gut signalling hormone (Gastric Inhibitory Peptide (GIP), Glucagon-like peptide-1 (GLP-1), ghrelin) concentrations; ketone bodies; and endocannabinoid plasma levels.
as §4, §5
As this was a pilot study, a formal sample size calculation was not required. Each treatment group consisted of 10 subjects. There was five treatment groups 1:1 and 20:1 ratio of CBD:THCV plus CBD alone, THCV alone and placebo.

The next test has as its target CB-1 receptor (Homo sapiens, UniProt P21554). Particulars: receptor binding studies, GB 2434097; cited from earlier work.

SMILES strings stand for the structures. “Also recorded” adds a separate entry of the source.

Chain of CB-1 receptor (P21554 whole entry): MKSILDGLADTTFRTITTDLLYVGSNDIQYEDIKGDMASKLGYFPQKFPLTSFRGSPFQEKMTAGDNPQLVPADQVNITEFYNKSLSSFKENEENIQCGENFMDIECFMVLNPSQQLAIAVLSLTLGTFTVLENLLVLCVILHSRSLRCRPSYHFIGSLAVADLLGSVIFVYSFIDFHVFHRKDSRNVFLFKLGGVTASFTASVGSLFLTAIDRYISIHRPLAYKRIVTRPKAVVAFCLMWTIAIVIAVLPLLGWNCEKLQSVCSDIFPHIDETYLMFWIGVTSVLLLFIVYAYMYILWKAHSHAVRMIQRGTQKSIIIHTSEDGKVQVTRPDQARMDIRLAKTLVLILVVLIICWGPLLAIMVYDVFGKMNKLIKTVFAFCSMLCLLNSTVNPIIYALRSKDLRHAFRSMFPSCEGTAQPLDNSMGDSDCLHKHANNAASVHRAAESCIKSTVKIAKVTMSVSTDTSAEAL

Turning to `Cc1c(C(=O)NN2CCCCC2)nn(-c2ccc(Cl)cc2Cl)c1-c1ccc(I)cc1` [AM 251], in test [1], the food intake result was “slightly lower”.
Turning to `C=C(C)[C@@H]1CCC(C)=C[C@H]1c1c(O)cc(CCCCC)cc1O` [CBD, cannabidiol], the “weight gain (bodyweight change over the study period)” value in test [1] (FIG. 6) is reported as “increased weight gain”.
`CCCc1cc(O)c2c(c1)OC(C)(C)[C@@H]1CCC(C)=C[C@@H]21` [THCV, Tetrahydrocannabivarin]: the “retention of insulin in the pancreatic islet (insulin staining, histology)” value with pancreatic islet cells (28 day study, FIGS. 2-5, 10 mg/kg) was “greater retention of insulin in the pancreatic islet than both AM251 and CBD; also recorded: statistically more insulin present in the pancreatic islets”. Also, the “pancreatic islet beta cell mass (morphological analysis)” value in the test on pancreatic islet cells (end of study, FIG. 8) was “higher in the THCV treated animals than in the vehicle and CBD and AM251 treated groups”. Further, the food intake entry in test [1] is “slightly lower”. For the same compound, the “blood glucose concentration during a 24 hour period” value in test [2] (male db/db mice, 10 mg/kg daily, FIG. 7) was “more controlled during a 24 hour period”. Besides, the “reduction in blood glucose” value in test [2] (male db/db mice, 10 mg/kg daily, conclusion of Example 1) was “without having a profound reduction in blood glucose”. Further, in test [2] (rodent model of diabetes), the fasting insulin result is “reduction in fasting insulin”. Further, the “concentration of insulin during oral glucose tolerance test, mean change from baseline” value in test [3] (FIG. 14) was “increases over the first hour and then reduces down to the same level as the placebo after 2 hours”. In addition, the “concentration of blood glucose during oral glucose tolerance test, mean change from baseline” value in test [3] (FIG. 15) is given as “quickly reducing the blood glucose level compared to placebo”. In test [4], the “HOMA2 insulin sensitivity, mean change from baseline” value was “increased sensitivity to insulin”. In the test with beta cell function, the “HOMA2 beta cell function, mean change from baseline” value is “much increased beta cell function compared to all the other groups”. Besides, the “change from baseline in mean serum GLP-1 levels” value in test [5] is on record as “highest increase in GLP-1”. In addition, on CB-1 receptor, the CB-1 receptor pharmacology result is given as “neutral antagonist”.

The values are drawn from patent US20160243075A2, “TETRAHYDROCANNABIVARIN (THC) FOR USE IN THE PROTECTION OF PANCREATIC ISLET CELLS” (GW Pharma Limited, priority 2014, published 2016).
